Test results published in patent US20250282816A1, “THIOSTREPTON COMPOSITIONS AND PREPARATION THEREOF” (RS Oncology, LLC, priority 2021, published 2025).

Experiments:
[1] = Antibiotics-Microbial assay, USP <81>; format: cell-based; details: final product of the 2 kg scale cGMP process (GMP DS Lot 1); specification ≥900 IU/mg
Description: Materials and Methods. […] Identification by IR spectrum, USP <197K> • 2. Antibiotics-Microbial assay, USP <81>

[2] = system: ovarian cancer cell line SKOV3; experiment: cell viability assay, crystal violet cell staining; format: cell-based; details: 48 hours treatment
Experimental: Commercial thiostrepton (TS) starting material (TS Non-GMP) and ultrapure TS (TS GMP) were diluted to 10 mM in sterile DMSO. Lots of TS were evaluated in a cell viability assay using the ovarian cancer cell line SKOV3 purchased from ATCC. Two replicate plates containing technical duplicates were set up for screening. Cells were plated at a density of 2,500 cells/well in 96-well plates and allowed to adhere for 24 hours prior to treatment. A starting concentration of 20 μM for each TS solution was serial diluted 1:1 covering a concentration range of 20 μM to 20 nM. Cells were incubated with treatments for 48 hours prior to fixation with 3% formaldehyde and crystal violet cell staining to determine residual cells remaining (100%=no cell death, 0%=complete cell death). FIG. 4. EC50 values (the concentration required to kill 50% of cells) were determined using a variable slope least square fit non-linear regression. FIG. 5.

C=C(NC(=O)C(=C)NC(=O)c1csc(C2=N[C@@H]3c4csc(n4)[C@H]4NC(=O)c5csc(n5)[C@H]([C@](C)(O)[C@@H](C)O)NC(=O)[C@H]5CSC(=N5)/C(=C/C)NC(=O)[C@H]([C@@H](C)O)NC(=O)c5csc(n5)[C@]3(CC2)NC(=O)[C@H](C)NC(=O)C(=C)NC(=O)[C@H](C)NC(=O)[C@H]([C@@H](C)CC)N[C@@H]2C=Cc3c([C@H](C)O)cc(nc3[C@H]2O)C(=O)O[C@@H]4C)n1)C(N)=O [ultrapure TS, thiostrepton]
Antibiotics-Microbial assay [1]: 988 IU/mg | biological activity as measured by % cell death of cancer cells, compared with commercial TS ([2]; 20 μM to 20 nM, N=4 replicates (FIG. 4)): better biological activity | biological activity as measured by EC50 (the concentration required to kill 50% of cells), compared with commercial TS ([2]; variable slope non-linear regression, N=4 replicates, p<0.0001 (FIG. 5)): better biological activity
